Data taken from US20040242537A1, “Acetylation method of chitosan” (priority 2001, published 2004).

Conditions: pH 7

solubility according to pH: rapid decrease in solubility
Substance: chitosan
